For one compound, D90 results are on record in patent US20130122051A1, “Methods of preparing progesterone pharmaceutical compositions” (PHARMACEUTICS INTERNATIONAL, INC., priority 2011, published 2013).

SMILES strings stand for the structures.

A short description of this data set: particle size measured using a MALVERN MASTERSIZER particle size analyzer. The conditions noted are these: starting progesterone particles before milling. The class given is physicochemical. As to the method: Samples of each of the first, second, and third pass wet-milled progesterone compositions prepared under the various milling conditions are collected and the particle size (μm) is measured using a MALVERN MASTERSIZER particle size analyzer (Malvern Instruments, Westborough Mass.). Saturated, filtered, progesterone in sunflower oil is used as the diluent. “Initial” refers to unmilled progesterone suspension. “% Beads” refers to the volume of milling chamber filled with milling media (beads). “Input” refers to the pump setting. “Output” refers to the product (gm/min) received from the mill.

The compound `CC(=O)[C@H]1CC[C@H]2[C@@H]3CCC4=CC(=O)CC[C@]4(C)[C@H]3CC[C@]12C` [unmicronized progesterone, pregn-4-ene-3,20-dione] yielded a D90 of 220 μm.
